Structures are written as SMILES.

Common to all, as to type: in vivo
In data set [1] the test system is rats. The data set is described as follows: Sedative effect (loss of the righting reflex) in rats. The following applies: 10 rats; dose of 0.5 mg/kg. The method, then:
(§1) (C) The following tests concerning the sedative effect of 4-(2,6-dimethylbenzyl)imidazole and the inhibition of this effect with compound (I) were carried out in rats.
A dose of 0.5 mg/kg of 4-(2,6-dimethylbenzyl) imidazole was injected into 10 rats. This dose induced loss of the righting reflex for 1 h.

A further data set deals with Calves (8) and Cows (7). The data set is described as follows: Awakening from detomidine-induced sedation, calves and cows. Particulars: detomidine 0.04-0.06 mg/kg i.m., compound (I) i.v. after 30 min, same dose as detomidine. The method, then:
(§2) Trials were carried out as follows: • (A) A dose of 0.04-0.06 mg/kg of detomidine was injected i.m. into the test animals. After exactly 30 min. compound (I) was given intravenously. The awakening of the animal or its recovery from the sedation was then observed. Calves (8) and Cows (7) recovered from detomidine-induced sedation in 2 to 5 minutes from the injection of compound (I). Horses (4) awoke in 5 to 10 min. The awakening effect of compound (I) was found stable for both species. […] For the calves and cows, the dose of compound (I) was the same as the dose of detomidine. For the horses, the dose of compound (I) was five times greater than that of detomidine. • (B) A dose of 2 mg/kg of xylazine was injected i.m. into 10 dogs. This injection induced sedation which lasted for 0.5 - 1 hr. During this time the dogs were able to walk only with difficulty.

Another data set relates to Horses (4). Briefly: Awakening from detomidine-induced sedation, horses. The following applies: detomidine 0.04-0.06 mg/kg i.m., compound (I) i.v. after 30 min, dose five times greater than that of detomidine. Here is the method:
as §2

In the next data set the test system is dogs. The data set is described as follows: Awakening from xylazine-induced sedation in dogs. Particulars: compound (I) 0.1 - 0.3 mg/kg i.v. 20 min. after 2 mg/kg of xylazine. The method, then:
In other experiments compound (I) was given at a dose of 0.1 - 0.3 mg/kg i.v. 20 min. after the injection of 2 mg/kg of xylazine. The awakening of the dogs and their recovery from the sedation was observed. The dogs recovered from the xylazine-induced sedation in 2 - 3 minutes after the administration of compound (I).

Data set [2] deals with rats. Briefly: Inhibition of the sedative effect of 4-(2,6-dimethylbenzyl)imidazole in rats (spontaneous locomotor activity, activity meter). Particulars: compound (I) 1-3 mg/kg i.v. or i.p., 15 minutes after 4-(2,6-dimethylbenzyl)imidazole. Here is the method:
as §1
In other tests, compound (I) was given i.v. or i.p. to rats at a dose of 1-3 mg/kg, 15 minutes after the administration of 4-(2,6-dimethylbenzyl)imidazole. The recovery of the animals from the sedation was observed by measuring their spontaneous locomotor activity with an activity meter.

For the next data set, the system named is horses and cattle. Briefly: Sedative and analgesic effect of detomidine in horses and cattle. The following applies: i.m. or i.v. From the text: This invention relates to the preparation of 2-[2-(1,4-benzodioxanyl)]-2-imidazoline, and to its use. Detomidine, which has the formula [drawing 1] is a known compound with sedative and analgesic effect in animals. The potency and the duration of the effect can be regulated by the dosage. The compound is very potent; dosages as small as […] given by injection provide a clinical response. Detomidine is used in veterinary medicine especially in the handling of horses and cattle (pharmacological restraint). The animal is sedated before investigation, treatment and difficult medical operations. Even small surgical operations cannot be carried out without the use of a sedative agent.
The analgesic effect is dose dependent. […] Table 1: The effect of detomidine in horses and cattle. Dosage i.m. or i.v.

With `Cc1cccc(C)c1Cc1c[nH]cn1` [4-(2,6-dimethylbenzyl) imidazole, 4-(2,6-dimethylbenzyl)imidazole], in the data set on rats [1], the “duration of loss of the righting reflex” value is 1 h.
`c1ccc2c(c1)OCC(C1=NCCN1)O2` (stereo not drawn) [compound (I), 2-[2-(1,4-benzodioxanyl)]-imidazoline]: in the data set on Calves (8) and Cows (7), the awakening effect entry is listed as “stable” and the side-effects entry is listed as “No side-effects were observed”. Further, in the data set on Horses (4), the awakening effect entry is reported as “stable” and the side-effects entry is given as “No side-effects were observed”. In the data set on dogs, the awakening effect entry is reported as “stable” and the side-effects entry is “No side-effects were observed”. In the data set with rats [2], the “counteraction of the sedative effect of 4-(2,6-dimethylbenzyl)imidazole” value was “fully counteract” and the “time to counteract the sedative effect of 4-(2,6-dimethylbenzyl)imidazole after the administration of compound (I)” value was 1 to 5 min.
With `Cc1cccc(Cc2c[nH]cn2)c1C` [detomidine, Detomidine], in the data set with horses and cattle (dose 20-40 µg/kg), the “Delay before the effect begins” value fell in the range of 3 to 5 min, the Effect entry is given as “easy to handle; short effect” and the Other effects result is recorded as “slight stagger-ing”. In the data set with horses and cattle (dose 40-80 µg/kg), the “Delay before the effect begins” value is 2 to 5 min; the Effect entry is on record as “strong effect”; the Other effects entry is given as “stagger-ing, sweating pilo-erection, muscular tremor”. Moreover, in the data set with horses and cattle (dose 80-150 µg/kg), the “Delay before the effect begins” value lay within 1 to 5 min; the “Duration of the effect” value was in the range of 2 to 6 h; the Other effects entry is reported as “Strong stagger-ing, pilo-erection, sweating, diuresis”.

The values above are taken from patent EP0138358A1, “The preparation and use of 2-[2-(1,4-benzodioxanyl)]-2-imidazoline in therapy” (Farmos-Yhtyma Oy, priority 1983, dated 1985).
